By half-life is commonly meant how long it takes for the measured level to halve. Read a high half-life as slow decline. Broadly, the microsomal CLint is a measure of how fast metabolising enzymes remove a compound, apart from limits set by blood flow.

The series in a line: Mouse microsomal stability assay. In kind it is in vitro ADME. Conditions: pH 7.4; mouse liver microsomes, 37° C. The protocol: In vitro assays were performed to evaluate the metabolic stability of test items in liver microsomes originating from mouse. Preparation of working standards of test items: Working solutions were prepared for each calibration level by appropriate dilution of the corresponding stock solution, depending on each compound's solubility in acetonitrile or acetonitrile/water. Calibration standards were prepared by spiking 196 μl standard matrix with 4 μl of the corresponding working solution. The standard matrix consists of 0.15 mg/ml of microsomal protein in phosphate buffer (100 mM pH 7.4), the final standard solutions contain 2% acetonitrile. The samples and standard solutions were extracted with ethyl acetate, isolation of the compounds was performed by addition of 600 μl ethyl acetate containing the internal standard (0.1 μM) to 200 μl sample and calibration standard. After vigorously shaking (10 minutes) and centrifugation (5000 g) the aqueous phase was separated by freezing in an acetone/dry ice bath and the organic phase is evaporated to dryness using a vacuum centrifuge. Samples were reconstituted in 200 μl acetonitrile/water mix (1:1 v/v) and subsequently subjected to LC-MS/MS. The incubation solution (180 μl) consisted of 90 μl of a microsomal suspension of 0.33 mg/ml of protein in phosphate buffer 100 mM pH 7.4 and 90 μl NADP-regenerating system. The reaction was initiated by the addition of 20 μl of test compound (in 20% acetonitrile) to the preincubated microsomes/buffer mix at 37° C. 200 μl samples were removed from the incubation after 0, 5, 10, and 30 minutes and processed for ethyl acetate extraction as described above. Negative controls using boiled microsomes (boiling water bath, 25 minutes) without regenerating system were run in parallel. The amount of compound in the samples is expressed as percentage of remaining compound compared to time point zero (=100%). These percentages were plotted against the corresponding time points. Intrinsic clearance (CLint) and half-life (t1/2) estimates were determined using the rate of parent disappearance and following formula (1) and (2). (1) CLint=(−k)×V×fu. (2) t1/2=In2/−k. Where CLint=intrinsic clearance [μl/min/mg protein], t1/2=half life [min], k=slope from the linear regression of log [test compound] versus time plot [1/min]. V=6666.7; fu=unbound fraction in the blood. Applying this protocol gave microsomal stabilities for examples and reference compounds as listed below in Table 9: […]

Take `CC(C)c1onc(-c2c(Cl)cccc2Cl)c1COc1ccc(N(C)Cc2ccc(C(=O)O)cc2)c(C(F)(F)F)n1` [Example 28, 4(((6-((3-(2,6-Dichlorophenyl)-5-isopropylisoxazol-4-yl)methoxy)-2-(trifluoromethyl)pyridin-3-yl)(methyl)amino)methyl)benzoic acid]: the half-life was 38 min and the microsomal CLint stood at 120 µL/min/mg.

The values are drawn from patent US20100184809A1, “Heterocyclic FXR Binding Compounds” (PHENEX PHARMACEUTICALS AG, priority 2006, published 2010).
